Measurements taken from US9383364B2, “Predictive marker of DNMT1 inhibitor therapeutic efficacy and methods of using the marker” (priority 2011, dated 2016).
Entries after “also recorded” stand apart in the source; their conditions may differ. Where two headings read alike, the source gives them in different places.

Assays:
Colo-205 xenografts = Colo-205 xenografts in nude mice; assay type: in vivo; conditions: for non-specific toxicities as judged by body weight: 25 mg/kg daily for 21 days i.v., FIG. 7C; for in vivo antitumor efficacy: 25 mg/kg/day i.v. for 21 days, FIGS. 7A and 7B
A549 xenografts = experiment: A549 lung cancer xenograft model
Text: (§1) U.S. Patent Publication No. 2008/0188570 (herein incorporated by reference in its entirety) further discloses more than 50 analogs of XB05 (BX11). […] In some embodiments, the DNMT1 inhibitor is XB05a (BX12).

global DNA methylation = experiment: global DNA methylation; assay type: cell-based
Text: XB05 (BX11) has activities that slightly differ from other agents in this class of compounds. This is illustrated not only by the NCI 60 data, but also by the effects of XB05 (BX11) and 5-aza on cancer cells and tumor xenografts (FIG. 7). […] XB05 (BX11) and 5-aza may inhibit DNMT activity by different mechanisms.

DNMT1 [1] = target: T1, DNMT1 (Homo sapiens, UniProt P26358); experiment: in vitro DNMT1 activity assay; assay type: biochemical
Text: FIG. 9A is a schematic of an exemplary in vitro DNMT activity assay.
(§2) The assays use recombinant Human DNMT1 (FIG. 5A) or nuclear extracts prepared from cells treated with XB05 (BX11) or XB05a (BX12) (FIG. 5B).
Target sequence in this assay (P26358 whole entry): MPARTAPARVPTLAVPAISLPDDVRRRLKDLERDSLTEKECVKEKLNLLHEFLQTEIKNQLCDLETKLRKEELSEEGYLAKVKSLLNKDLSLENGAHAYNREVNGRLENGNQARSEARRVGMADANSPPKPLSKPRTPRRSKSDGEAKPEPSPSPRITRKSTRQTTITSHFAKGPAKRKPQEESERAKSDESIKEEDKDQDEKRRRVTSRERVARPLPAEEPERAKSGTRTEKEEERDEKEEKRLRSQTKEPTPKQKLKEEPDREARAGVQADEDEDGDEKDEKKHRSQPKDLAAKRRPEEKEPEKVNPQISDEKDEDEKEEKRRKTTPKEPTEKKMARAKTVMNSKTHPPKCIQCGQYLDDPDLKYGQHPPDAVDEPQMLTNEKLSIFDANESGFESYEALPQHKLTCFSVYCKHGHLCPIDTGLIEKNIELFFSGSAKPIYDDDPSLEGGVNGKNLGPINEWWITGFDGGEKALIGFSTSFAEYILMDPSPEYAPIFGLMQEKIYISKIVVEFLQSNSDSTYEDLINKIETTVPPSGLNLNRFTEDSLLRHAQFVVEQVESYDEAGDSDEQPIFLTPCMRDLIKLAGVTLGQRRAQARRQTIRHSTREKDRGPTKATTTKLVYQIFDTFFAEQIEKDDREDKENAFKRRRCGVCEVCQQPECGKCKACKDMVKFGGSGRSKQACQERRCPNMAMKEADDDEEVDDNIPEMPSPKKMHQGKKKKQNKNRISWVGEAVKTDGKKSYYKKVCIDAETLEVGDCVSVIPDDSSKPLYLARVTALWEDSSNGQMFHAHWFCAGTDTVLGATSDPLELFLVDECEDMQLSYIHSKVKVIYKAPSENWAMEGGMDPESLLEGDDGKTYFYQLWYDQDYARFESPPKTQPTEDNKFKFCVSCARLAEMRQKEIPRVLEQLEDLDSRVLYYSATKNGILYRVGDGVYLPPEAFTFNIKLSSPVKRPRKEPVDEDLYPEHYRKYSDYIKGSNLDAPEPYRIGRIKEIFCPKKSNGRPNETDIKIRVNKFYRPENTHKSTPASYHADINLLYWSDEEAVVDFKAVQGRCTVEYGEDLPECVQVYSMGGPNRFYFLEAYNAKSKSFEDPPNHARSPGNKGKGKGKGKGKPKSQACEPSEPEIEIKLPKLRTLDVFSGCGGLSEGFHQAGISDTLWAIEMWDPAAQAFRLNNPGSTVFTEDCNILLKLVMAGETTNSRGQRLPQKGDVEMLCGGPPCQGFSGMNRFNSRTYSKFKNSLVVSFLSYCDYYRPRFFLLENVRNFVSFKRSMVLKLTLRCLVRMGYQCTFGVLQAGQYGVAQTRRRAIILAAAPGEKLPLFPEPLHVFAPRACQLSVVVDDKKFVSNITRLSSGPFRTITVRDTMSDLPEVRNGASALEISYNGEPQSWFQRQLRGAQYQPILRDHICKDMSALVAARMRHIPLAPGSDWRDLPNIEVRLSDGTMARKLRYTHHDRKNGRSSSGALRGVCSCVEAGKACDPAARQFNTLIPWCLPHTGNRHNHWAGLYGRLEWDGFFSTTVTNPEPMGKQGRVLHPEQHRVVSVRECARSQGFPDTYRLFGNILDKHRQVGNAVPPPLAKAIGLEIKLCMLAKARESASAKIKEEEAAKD

MDA-MB-435 = experiment: NCI60 breast cancer panel, cytotoxic effect; assay type: cell-based, human; conditions: 1 μM BX11, FIG. 4A
Protocol: (§3) FIG. 4A is NCI60 data showing the effect of XB05 (BX11) on proliferation of various breast cancer cell lines. All cells lines are sensitive to XB05 (BX11) cytostatic effects (GI50<100 nM), whereas a few are especially susceptible to cytotoxic effects (e.g., see 1 μM XB05 (BX11) data points).
(§4) BX11 (XB05) has potent antiproliferative and cytotoxic activity on a variety of breast cancer cell types, with some cell types having GI50 values less than or equal to 10 μM. There were several cell lines that seemed particularly sensitive to the cytotoxic effects of BX11 (BX05). […] The MDA-MB-231 cell line is derived from a triple negative breast cancer (TNBC) and MDA-MB-435 was originally described as being derived from a TNBC, although its origin is now uncertain (it is unquestionably derived from the same source as the M14 melanoma cell line and many believe it is a melanoma, although some argue that both cell lines are derived from a breast carcinoma). […] This latter assay is often used to assess activity against the subpopulation of stem-like cancer cells with enhanced tumor-initiating capacity.

MDA-MB-231 = experiment: NCI60 breast cancer panel, cytotoxic effect; assay type: cell-based, human; conditions: 1 μM BX11, FIG. 4A
Protocol: as §3, §4

[2] = system: MDA-MB-231 breast cancer cells; experiment: RT-PCR and Western blotting of methylated (repressed) genes; assay type: cell-based; conditions: 1 μM BX11 (XB05), 72 hours, control genes GAPDH and β-actin unchanged
Protocol: Experiments described above were performed to test the effect of BX11 (XB05) on DNMT1 activity. The expression of a number of methylated (repressed) genes in MDA-MB-231 breast cancer cells was further determined using both RT-PCR and Western blotting following treatment with vehicle (control), 1 μM BX11 (XB05), or 10 μM 5-azacytidine (positive control).

endothelial cell (HUVEC) = experiment: transwell migration and tube formation assay; assay type: cell-based; conditions: 800 nM XB05 (BX11)
[3] = system: DU145 and LNCaP prostate cancer cells; experiment: RT-PCR mRNA expression of silenced tumor suppressor genes; assay type: cell-based
[4] = system: several cancer cell lines, including prostate cancer; experiment: activity against cancer cell lines (Table 2); assay type: cell-based
HCT116 cells [5] = experiment: induction of senescence; assay type: cell-based; conditions: 96 h with 100 nM XB05 (BX11)
HOP92 cells = experiment: SOX9 siRNA knockdown, cell number and viability; assay type: cell-based; conditions: 60 nM siRNA 24 hours, then XB05 48 hours
Protocol: In a second set of experiments, HOP92 cells were transfected for 24 hours with 60 nM siRNA against SOX9, control siRNA, or no RNA (mock). Knockdown of SOX9 was confirmed by Western blots (WB). Cells were then treated with XB05 (BX11) as indicated. After 48 hours, the cell number and viability for each sample was determined using an automated cell counter.

[6] = system: GSTP1 promoter from LNCaP cells; experiment: methylation specific PCR of GSTP1 promoter; assay type: cell-based; conditions: 100 nm XB05 (BX11)
LLC cells = experiment: clonogenic survival and MTT proliferation assays; assay type: cell-based; conditions: murine lung carcinoma, negative control
Text: (§5) (3a) results from the NCI 60 cell screen showing a good correlation between the levels of expression of SOX9 and cell death induced by XB05 (BX11); (3b) Western blot showing expression of SOX9 in sensitive cell lines; (3c) clonogenic survival assay in cells sensitive or resistant to XB05 (BX11); (3d) MTT proliferation assays in cells sensitive or resistant to XB05 (BX11).
(§6) FIG. 3B are Western blots (WB) confirming expression of Biomarker X (SOX9) protein in the sensitive cell lines. […] Where indicated, HCT116 cells (colon cancer, sensitive to XB05 (BX11)) and LLC cells (murine lung carcinoma, resistant to XB05 (BX11)) are shown as positive and negative controls, respectively. (SOX9 levels were not assayed in LLC cells because they are of mouse origin).

HCT116 cells [7] = experiment: clonogenic survival and MTT proliferation assays; assay type: cell-based; conditions: colon cancer, positive control
Text: as §5, §6

DNMT1 [8] = target: T1, DNMT1; experiment: DNMT1 activity in nuclear extracts from treated cells; assay type: cell-based; design: endogenous in cells; conditions: FIG. 5B
Text: as §2
Target sequence in this assay (P26358 whole entry, species assumed): as the sequence (P26358 whole entry) above

[9] = system: MDA-MB-231 breast cancer cells; experiment: tumorsphere formation assay; assay type: cell-based; conditions: day 12 after plating
Protocol: FIG. 4D are data from tumorsphere formation assays for MDA-MB-231 breast cancer cells on day 12 after plating. The data shown are representative images from three separate experiments.
FIG. 4E is a graph of the data from the tumorsphere formation assays for MDA-MB-231 breast cancer cells on day 12 after plating.
as §4

[10] = system: MDA-MB-231 breast cancer cells; experiment: soft agar colony formation assay; assay type: cell-based; conditions: stained 21 days after plating
Protocol: FIG. 4B are data from soft agar colony formation assays for MDA-MB-231 breast cancer cells. The cells were stained with crystal violet 21 days after plating.
FIG. 4C is a graph of the data from the soft agar colony formation assays for MDA-MB-231 breast cancer cells. The data shown are the mean±standard error (n=3).
as §4

A549 lung cancer cells = experiment: sensitivity of A549 cells to XB05; assay type: cell-based
Text: The present invention is based on the discovery that SOX9 expression in cancer cells is correlated with sensitivity to cell killing by XB05 (BX11). The COMPARE algorithm (Andrianasolo et al., J. Nat. Prod. 69:576-579, 2006) was used to search for correlations between response to XB05 (BX11) and gene expression using the NCI 60 cell line screen for XB05 (BX11) and the publicly available microarray studies of the NCI 60 panel. […] High levels of SOX9 expression were associated with high sensitivity to XB05 (BX11) across the 60 cell lines, as shown in FIG. 3. […] The experiments have been repeated multiple times and differences are statistically significant (p<0.05).

breast cancer cell lines = experiment: NCI60 data, proliferation of breast cancer cell lines; assay type: cell-based, human; conditions: all breast cancer cell lines, FIG. 4A, read-out: GI50 (cytostatic effects)
Protocol: as §3
A variety of different breast cancer cell lines were treated with 1 μM BX11, and the cytotoxic effect of 1 μM BX11 was determined. The cytotoxicity data for each breast cancer cell line was correlated with the SOX9 level present in each cell line prior to treatment.
as §4

HCT116 xenografts = experiment: HCT116 xenografts; conditions: in vivo
aqueous stability = assay type: physicochemical; conditions: addressed by cremaphor/ethanol/NaCl formulation
Text: as §1

[11] = anti-proliferative assays; assay type: cell-based
Text: as §1

With `CCCCCC(C#CC(F)(F)Br)OC(C)=O` (racemic) [XB05b (BX17)] the “non-specific toxicities as judged by body weight” value (Colo-205 xenografts) was “no evidence of any severe non-specific toxicities” and the “in vivo antitumor efficacy” value (Colo-205 xenografts) was “in vivo antitumor efficacy”.
In the case of `Nc1ncn([C@@H]2O[C@H](CO)[C@@H](O)[C@H]2O)c(=O)n1` [5-aza, 5-azacytidine, reference compound], the maximally tolerated dose (A549 xenografts; mouse, in vivo) is reported as 6 mg/kg, the “effect on global DNA methylation” value (global DNA methylation) is reported as “causes global DNA methylation” and the “activity relative to XB05 (BX11)” value (global DNA methylation; 5-aza used at higher concentrations than XB05 (BX11)) is reported as “less active”.
With `CCCCCC(O)C#CC(F)(F)Br` (centres unmarked) [XB05 (BX11)] the DNMT1 activity (DNMT1 [1]; recombinant human DNMT1, FIG. 5A) was “inhibitory effects”, the DNMT activity (DNMT1 [1]; summary statement, assay form not specified) was “Inhibits” and the cell death (MDA-MB-435) was “significant cell death”. For the same molecule, the cell death (MDA-MB-231) was “significant cell death”, the “tumor growth delay, alone” value (A549 xenografts; i.v. 25 mg/kg/day x 21, monotherapy) was “significant tumor growth delay” and the “tumor growth delay, in combination with cisplatin” value (A549 xenografts; i.v. 25 mg/kg/day x 21 plus cisplatin 4 x 4 mg/kg every 3 days) was “significant tumor growth delay”. For the same molecule, the “expression of genes commonly silenced by methylation” value [2] was “re-expressed”, the “expression of genes commonly silenced by methylation” value ([2]; listed as BX11 (XB05)) was “specific reactivation” and the “endothelial cell function (transwell migration, tube formation)” value (endothelial cell (HUVEC)) was “inhibition; also recorded: inhibitory effects”. For the same molecule, the “toxicity to HUVECs” value (endothelial cell (HUVEC)) was “non-toxic”, the “endothelial cell function (transwell migration, tube formation)” value (endothelial cell (HUVEC); listed as XB05) was “Inhibits endothelial cell activity in in vitro assays” and the “reactivation of silenced tumor suppressor genes” value [3] was “reactivates”. For the same molecule, the “reactivation of silenced tumor suppressor genes” value ([3]; listed as XB05) was “reactivates”, the “potent activity against several cancer cell lines” value [4] was “Discovered by chance to have potent activity (<100 nM) against” and the “senescence in cancer cells” value (HCT116 cells [5]) was “induction of senescence; also recorded: induce cellular senescence”. For the same molecule, the “senescence in cancer cells” value (HCT116 cells [5]; listed as XB05) was “Induces senescence in cancer cells”, the “anti-proliferative effects after knockdown of SOX9 using a specific siRNA” value (HOP92 cells) was “completely blocked” and the promoter methylation [6] was “inhibits”. For the same molecule, the “sensitivity to XB05 (BX11)” value (LLC cells) was “resistant”, the “sensitivity to XB05 (BX11)” value (HCT116 cells [7]) was “sensitive” and the DNMT1 activity (DNMT1 [8]) was “inhibitory effects”. The “effect on global DNA methylation” value (global DNA methylation) was “no obvious effect”, the “effect on global DNA methylation” value (global DNA methylation; listed as XB05) was “including no effect on global DNA methylation” and the tumorsphere growth [9] was “inhibit”. For the same molecule, the “colony formation in soft agar” value [10] was “inhibit”, the “sensitivity to XB05 (BX11)” value (A549 lung cancer cells) was “modest sensitivity” and the GI50 (breast cancer cell lines) was under 100 nM. For the same molecule, the “tumor necrosis ("hollow" tumors)” value (HCT116 xenografts) was “central tumor necrosis”.
In the case of `CC/C=C\CCC(O)C#CC(F)(F)Br` (centres unmarked) [XB05a (BX12)], the “activity in DNMT1 inhibition assays compared to XB05 (BX11)” value (DNMT1 [1]) is reported as “equivalent or better activity”, the aqueous stability (aqueous stability) is reported as “poor” and the “antitumor activity alone compared with 5-aza alone” value (A549 xenografts; 5-aza at 6 mg/kg) is reported as “more active”. The myelotoxicity (A549 xenografts; data not shown) was “no significant myelotoxicity”, the “toxicity (body weight loss) compared with 5-aza or cisplatin” value (A549 xenografts; mouse, in vivo) was “much less toxicity” and the “activity in anti-proliferative assays compared to XB05 (BX11)” value [11] was “equivalent or better activity”. For the same molecule, the “non-specific toxicities as judged by body weight” value (Colo-205 xenografts) was “no evidence of any severe non-specific toxicities” and the “in vivo antitumor efficacy” value (Colo-205 xenografts) was “in vivo antitumor efficacy”.
